# Experimental data as given in patent US3960877A, “N-monosubstituted-2,3-pyridinedicarboxamides, and related compounds” (priority 1974, dated 1976).
# Legend:
# Type in all cases: in vivo
# Cucumber [1] = assay: Postemergence herbicidal activity, % control of plant growth; details: Cucumis sativus, post-emergence, 264 h, 8 lb/acre, about 11 days
# Description: (§1) By the term "postemergence" is meant that the compound is applied to the plant sought to be controlled after it has emerged from the soil surface. This term is also used to describe the application of herbicidally active compounds to soil surface in and around growing plants sought to be controlled for purposes of effecting root absorption by the undesirable plant species.
# (§2) In the postemergence test the soil and developing plants were sprayed approximately 2 weeks after the seeds were sown. The compound was applied at the rate of 8 pounds per acre from about a 2 percent by weight solution of the test compound in acetone and/or alcohol. The postemergence herbicidal activity was measured in the same way as the preemergence activity; i.e. visual observation approximately 11 days after spraying, and expressed as the percent control of plant growth.
# (§3) **Postemergence test: compound applied at rate of 8 lb/acre
# Cheatgrass [2] = assay: as above; details: Bromus tectorum, post-emergence, 264 h, 8 lb/acre, about 11 days
# Description: as §1, §2, §3
# Crabgrass [3] = assay: as above; details: Digitaria sanguinalis, post-emergence, 264 h, 8 lb/acre, about 11 days
# Description: as §1, §2, §3
# Pigweed [4] = assay: as above; details: Amaranthus retroflexus, post-emergence, 264 h, 8 lb/acre, about 11 days
# Description: as §1, §2, §3
# Foxtail [5] = assay: as above; details: Setaria, post-emergence, 264 h, 8 lb/acre, about 11 days
# Description: as §1, §2, §3
# Barnyard Grass [6] = assay: as above; details: Echinochloa crus-galli, post-emergence, 264 h, 8 lb/acre, about 11 days
# Description: as §1, §2, §3
# Yellow Rocket [7] = assay: as above; details: post-emergence, 264 h, 8 lb/acre, about 11 days
# Description: as §1, §2, §3
# Alfalfa [8] = assay: as above; details: Medicago sativa, post-emergence, 264 h, 8 lb/acre, about 11 days
# Description: as §1, §2, §3
# Corn [9] = assay: as above; details: Zea mays, post-emergence, 264 h, 8 lb/acre, about 11 days
# Description: as §1, §2, §3
# Curled Dock [10] = assay: as above; details: post-emergence, 264 h, 8 lb/acre, about 11 days
# Description: as §1, §2, §3
# Nutgrass [11] = assay: as above; details: post-emergence, 264 h, 8 lb/acre, about 11 days
# Description: as §1, §2, §3
# Velvetleaf [12] = assay: as above; details: Abutilon theophrasti, post-emergence, 264 h, 8 lb/acre, about 11 days
# Description: as §1, §2, §3
# Snapbeans [13] = assay: as above; details: post-emergence, 264 h, 8 lb/acre, about 11 days
# Description: as §1, §2, §3
# Chickweed [14] = assay: as above; details: post-emergence, 264 h, 8 lb/acre, about 11 days
# Description: as §1, §2, §3
# Lambsquarters [15] = assay: as above; details: Chenopodium album, post-emergence, 264 h, 8 lb/acre, about 11 days
# Description: as §1, §2, §3
# Johnsongrass [16] = assay: as above; details: Sorghum halepense, post-emergence, 264 h, 8 lb/acre, about 11 days
# Description: as §1, §2, §3
# Cucumber [17] = assay: Preemergence herbicidal activity, % control of plant growth; details: Cucumis sativus, pre-emergence, 504 h, 16 lb/acre, about 3 weeks
# Description: (§4) By "preemergence" is meant that the compound is applied to the soil prior to emergence of the weed species sought to be controlled. This term, as used herein, also means the application of the herbicidal compounds falling within the scope of this disclosure to areas wherein useful or desirable plants are either growing or have been sown, but where the undesirable plants sought to be controlled have not as yet emerged.
# (§5) In using the compound, seeds of the types of plants set forth in Table II were sown in fresh soil. In the preemergence test the soil was sprayed with a solution of the test compound immediately after the seeds were planted, and before any noticeable growth developed. The solution was about a 2 percent by weight solution of the compound in acetone and/or alcohol. The compound was applied at the rate of 16 pounds per acre of soil surface.
# (§6) Approximately 3 weeks after spray application, the herbicidal activity of the compound was determined by visual observation of the treated area in comparison with untreated control areas. These observations are reported below in Table II wherein the average activity rating is reported as the percent control of plant growth.
# (§7) *Preemergence test: compound applied at rate of 16 lb/acre
# Cheatgrass [18] = assay: as above; details: Bromus tectorum, pre-emergence, 504 h, 16 lb/acre, about 3 weeks
# Description: as §4, §5, §6, §7
# Crabgrass [19] = assay: as above; details: Digitaria sanguinalis, pre-emergence, 504 h, 16 lb/acre, about 3 weeks
# Description: as §4, §5, §6, §7
# Pigweed [20] = assay: as above; details: Amaranthus retroflexus, pre-emergence, 504 h, 16 lb/acre, about 3 weeks
# Description: as §4, §5, §6, §7
# Wild Oats [21] = assay: as above; details: Avena fatua, pre-emergence, 504 h, 16 lb/acre, about 3 weeks
# Description: as §4, §5, §6, §7
# Foxtail [22] = assay: as above; details: Setaria, pre-emergence, 504 h, 16 lb/acre, about 3 weeks
# Description: as §4, §5, §6, §7
# Barnyard Grass [23] = assay: as above; details: Echinochloa crus-galli, pre-emergence, 504 h; barnyard grass; 16 lb/acre; about 3 weeks
# Description: as §4, §5, §6, §7
# Yellow Rocket [24] = assay: as above; details: pre-emergence, 504 h, 16 lb/acre, about 3 weeks
# Description: as §4, §5, §6, §7
# Alfalfa [25] = assay: as above; details: Medicago sativa, pre-emergence, 504 h, 16 lb/acre, about 3 weeks
# Description: as §4, §5, §6, §7
# Corn [26] = assay: as above; details: Zea mays, pre-emergence, 504 h, 16 lb/acre, about 3 weeks
# Description: as §4, §5, §6, §7
# Curled Dock [27] = assay: as above; details: pre-emergence, 504 h, 16 lb/acre, about 3 weeks
# Description: as §4, §5, §6, §7
# Nutgrass [28] = assay: as above; details: pre-emergence, 504 h, 16 lb/acre, about 3 weeks
# Description: as §4, §5, §6, §7
# Velvetleaf [29] = assay: as above; details: Abutilon theophrasti, pre-emergence, 504 h, 16 lb/acre, about 3 weeks
# Description: as §4, §5, §6, §7
# Snapbeans [30] = assay: as above; details: pre-emergence, 504 h, 16 lb/acre, about 3 weeks
# Description: as §4, §5, §6, §7
# Chickweed [31] = assay: as above; details: pre-emergence, 504 h, 16 lb/acre, about 3 weeks
# Description: as §4, §5, §6, §7
# Lambsquarters [32] = assay: as above; details: Chenopodium album, pre-emergence, 504 h, 16 lb/acre, about 3 weeks
# Description: as §4, §5, §6, §7
# Johnsongrass [33] = assay: as above; details: Sorghum halepense, pre-emergence, 504 h, 16 lb/acre, about 3 weeks
# Description: as §4, §5, §6, §7
# Wild Oats [34] = assay: Postemergence herbicidal activity, % control of plant growth; details: Avena fatua, post-emergence, 264 h, 8 lb/acre, about 11 days
# Description: as §1, §2, §3
SMILES,pest or weed control at 8966.8 g/ha (Cucumber [1]) [%],pest or weed control at 8966.8 g/ha (Cheatgrass [2]) [%],pest or weed control at 8966.8 g/ha (Crabgrass [3]) [%],pest or weed control at 8966.8 g/ha (Foxtail [5]) [%],pest or weed control at 8966.8 g/ha (Barnyard Grass [6]) [%],pest or weed control at 8966.8 g/ha (Alfalfa [8]) [%],plant injury at 8966.8 g/ha (Corn [9]) [%],pest or weed control at 8966.8 g/ha (Curled Dock [10]) [%],pest or weed control at 8966.8 g/ha (Nutgrass [11]) [%],pest or weed control at 8966.8 g/ha (Velvetleaf [12]) [%],pest or weed control at 8966.8 g/ha (Snapbeans [13]) [%],pest or weed control at 8966.8 g/ha (Chickweed [14]) [%],pest or weed control at 8966.8 g/ha (Lambsquarters [15]) [%],pest or weed control at 8966.8 g/ha (Johnsongrass [16]) [%],pest or weed control at 17933.6 g/ha (Cucumber [17]) [%],pest or weed control at 17933.6 g/ha (Cheatgrass [18]) [%],pest or weed control at 17933.6 g/ha (Crabgrass [19]) [%],pest or weed control at 17933.6 g/ha (Pigweed [20]) [%],pest or weed control at 17933.6 g/ha (Wild Oats [21]) [%],pest or weed control at 17933.6 g/ha (Foxtail [22]) [%],further results
"O=c1[nH]c2cccnc2c(=O)n1C1CC1 [3-cyclopropyl pyrido[3,2-d]pyrimidine-2,4(1H,3H)-dione]",20,0,10,0,0,0,0,10,0,0,0,100,100,0,100,100,100,100,80,10,pest or weed control at 8966.8 g/ha (Pigweed [4]): 90%; pest or weed control at 8966.8 g/ha (Yellow Rocket [7]): 100%; pest or weed control at 17933.6 g/ha (Barnyard Grass [23]): 10%; pest or weed control at 17933.6 g/ha (Yellow Rocket [24]): 100%; pest or weed control at 17933.6 g/ha (Alfalfa [25]): 100%; plant injury at 17933.6 g/ha (Corn [26]): 10%; pest or weed control at 17933.6 g/ha (Curled Dock [27]): 100%; pest or weed control at 17933.6 g/ha (Nutgrass [28]): 0%; pest or weed control at 17933.6 g/ha (Velvetleaf [29]): 100%; pest or weed control at 17933.6 g/ha (Snapbeans [30]): 100%; pest or weed control at 17933.6 g/ha (Chickweed [31]): 100%; pest or weed control at 17933.6 g/ha (Lambsquarters [32]): 100%; pest or weed control at 17933.6 g/ha (Johnsongrass [33]): 10%
"O=c1[nH]c2nccnc2c(=O)n1C1CCCCCCC1 [Lumazine, 3-cyclooctyl]",100,0,100,50,90,10,10,100,10,100,100,100,100,100,100,100,90,100,100,40,pest or weed control at 8966.8 g/ha (Wild Oats [34]): 10%; pest or weed control at 8966.8 g/ha (Yellow Rocket [7]): 100%; pest or weed control at 17933.6 g/ha (Barnyard Grass [23]): 70%; pest or weed control at 17933.6 g/ha (Yellow Rocket [24]): 100%; pest or weed control at 17933.6 g/ha (Alfalfa [25]): 100%; plant injury at 17933.6 g/ha (Corn [26]): 30%; pest or weed control at 17933.6 g/ha (Curled Dock [27]): 100%; pest or weed control at 17933.6 g/ha (Nutgrass [28]): 30%; pest or weed control at 17933.6 g/ha (Velvetleaf [29]): 100%; pest or weed control at 17933.6 g/ha (Snapbeans [30]): 100%; pest or weed control at 17933.6 g/ha (Chickweed [31]): 100%; pest or weed control at 17933.6 g/ha (Lambsquarters [32]): 100%; pest or weed control at 17933.6 g/ha (Johnsongrass [33]): 90%
"CC(C)n1c(=O)[nH]c2nccnc2c1=O [Lumazine, 3-isopropyl]",10,0,0,0,0,0,0,0,0,0,30,0,40,0,100,10,70,100,10,10,pest or weed control at 8966.8 g/ha (Pigweed [4]): 0%; pest or weed control at 8966.8 g/ha (Wild Oats [34]): 0%; pest or weed control at 17933.6 g/ha (Barnyard Grass [23]): 0%; pest or weed control at 17933.6 g/ha (Yellow Rocket [24]): 100%; pest or weed control at 17933.6 g/ha (Alfalfa [25]): 100%; plant injury at 17933.6 g/ha (Corn [26]): 10%; pest or weed control at 17933.6 g/ha (Curled Dock [27]): 100%; pest or weed control at 17933.6 g/ha (Nutgrass [28]): 0%; pest or weed control at 17933.6 g/ha (Velvetleaf [29]): 100%; pest or weed control at 17933.6 g/ha (Snapbeans [30]): 90%; pest or weed control at 17933.6 g/ha (Chickweed [31]): 60%; pest or weed control at 17933.6 g/ha (Lambsquarters [32]): 100%; pest or weed control at 17933.6 g/ha (Johnsongrass [33]): 70%
